Experimental data as given in ChEMBL document CHEMBL1201862, “PubChem BioAssay data set” (2004).
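Interpolation was linear, between the two tested concentrations surrounding the appropriate level; five concentrations were tested over 48 hours in 96-well plates. GI50 is the concentration that inhibits growth by half.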 Active and inactive are the calls of the source. Rule as the data show it: active = GI50 up to about 1.1 µM and inactive = higher.

Experiments:
Assay in all cases: DTP human tumour cell line panel, 48 h
NCI-H226 = test system: NCI-H226
LOX IMVI = test system: LOX IMVI
SK-MEL-28 = test system: SK-MEL-28
IGROV-1 = test system: IGROV-1
SK-MEL-5 = test system: SK-MEL-5
MCF7 = test system: MCF7
KM12 = test system: KM12
NCI-H23 = test system: NCI-H23
Malme-3M = test system: Malme-3M
HOP-62 = test system: HOP-62
CCRF-CEM = test system: CCRF-CEM
EKVX = test system: EKVX
SF-295 = test system: SF-295
OVCAR-5 = test system: OVCAR-5
K562 = test system: K562
MDA-MB-231 = test system: MDA-MB-231
ACHN = test system: ACHN
SN12C = test system: SN12C
HCC 2998 = test system: HCC 2998
SR = test system: SR

Row | SMILES | GI50 (NCI-H226) | GI50 (LOX IMVI) | GI50 (SK-MEL-28) | GI50 (IGROV-1) | GI50 (SK-MEL-5) | GI50 (MCF7) | GI50 (KM12) | GI50 (NCI-H23) | GI50 (Malme-3M) | GI50 (HOP-62) | GI50 (CCRF-CEM) | GI50 (EKVX) | GI50 (SF-295) | GI50 (OVCAR-5) | GI50 (K562) | GI50 (MDA-MB-231) | GI50 (ACHN) | GI50 (SN12C) | GI50 (HCC 2998) | GI50 (SR)
1 | NC(=O)c1ccc(C(=O)Nc2ccc([As](=O)(O)O)cc2)cc1 | > 100 µM (inactive) | > 100 µM (inactive) | > 100 µM (inactive) | > 100 µM (inactive) | > 100 µM (inactive) | > 100 µM (inactive) | > 100 µM (inactive) | > 100 µM (inactive) | > 100 µM (inactive) | > 100 µM (inactive) | > 100 µM (inactive) | > 100 µM (inactive) | > 100 µM (inactive) | > 100 µM (inactive) | > 100 µM (inactive) | > 100 µM (inactive) | > 100 µM (inactive) | > 100 µM (inactive) | – | –
2 | CCOC(=O)c1cc2c(=Cc3ccc(N(C)C)cc3)c3ccccc3n2[n+]1C | 8.24 µM (inactive) | 1.47 µM (inactive) | 1.53 µM (inactive) | – | 1.32 µM (inactive) | 2.34 µM (inactive) | – | 2.55 µM (inactive) | – | < 0.01 µM (active) | – | 4.97 µM (inactive) | 3.72 µM (inactive) | 5.98 µM (inactive) | 0.787 µM (active) | 3.86 µM (inactive) | 5.87 µM (inactive) | < 0.01 µM (active) | 1.69 µM (inactive) | –
3 | O=C(O/N=C1/CCCC/C1=C\c1ccccc1)c1ccccc1 | > 100 µM (inactive) | 33 µM (inactive) | > 100 µM (inactive) | 0.108 µM (active) | 0.146 µM (active) | – | 45.3 µM (inactive) | > 100 µM (inactive) | > 100 µM (inactive) | > 100 µM (inactive) | 36.8 µM (inactive) | > 100 µM (inactive) | 70.3 µM (inactive) | > 100 µM (inactive) | 20.8 µM (inactive) | – | > 100 µM (inactive) | > 100 µM (inactive) | > 100 µM (inactive) | 43.5 µM (inactive)
4 | c1ccc(-c2cn3nc(N4CCOCC4)sc3n2)cc1 | > 100 µM (inactive) | – | > 100 µM (inactive) | 62.4 µM (inactive) | > 100 µM (inactive) | > 100 µM (inactive) | > 100 µM (inactive) | > 100 µM (inactive) | > 100 µM (inactive) | 53.7 µM (inactive) | > 100 µM (inactive) | > 100 µM (inactive) | > 100 µM (inactive) | > 100 µM (inactive) | > 100 µM (inactive) | 85.9 µM (inactive) | > 100 µM (inactive) | 8.49 µM (inactive) | > 100 µM (inactive) | –
5 | Cc1ccc2c(c1)-c1nc(N)c(C#N)c(-c3ccc(Cl)cc3)c1CCS2(=O)=O | 28.4 µM (inactive) | 35.8 µM (inactive) | 48.9 µM (inactive) | 43.1 µM (inactive) | 18.2 µM (inactive) | – | 33.3 µM (inactive) | 39.4 µM (inactive) | 44.6 µM (inactive) | – | 20.7 µM (inactive) | – | – | – | – | 27.1 µM (inactive) | 44.6 µM (inactive) | 55.7 µM (inactive) | 64.3 µM (inactive) | 24.5 µM (inactive)
6 | C(=N\c1ccc(-c2nc3ccccc3s2)cc1)/c1ccco1 | 56.4 µM (inactive) | 54.1 µM (inactive) | > 100 µM (inactive) | 58.1 µM (inactive) | 33.5 µM (inactive) | – | 38 µM (inactive) | 70.6 µM (inactive) | > 100 µM (inactive) | 30.4 µM (inactive) | 37.6 µM (inactive) | 37.2 µM (inactive) | 18.9 µM (inactive) | > 100 µM (inactive) | 41.3 µM (inactive) | – | 44.8 µM (inactive) | 75.2 µM (inactive) | 43.5 µM (inactive) | 50.2 µM (inactive)
7 | N#Cc1nc(Nc2ccc(Cl)cc2)sc1N | 19.8 µM (inactive) | 3.47 µM (inactive) | 20.5 µM (inactive) | 19.5 µM (inactive) | 2.61 µM (inactive) | – | 13.8 µM (inactive) | 3.19 µM (inactive) | 11.6 µM (inactive) | 15 µM (inactive) | 2.94 µM (inactive) | 24.2 µM (inactive) | 16.9 µM (inactive) | 12.1 µM (inactive) | 3.91 µM (inactive) | – | 3.86 µM (inactive) | 4.54 µM (inactive) | 6.87 µM (inactive) | 1.51 µM (inactive)
8 | Cc1c2ccnc(C(N)=O)c2c(C)c2c1[nH]c1ccccc12 | 6.65 µM (inactive) | 4.65 µM (inactive) | 7.78 µM (inactive) | 9.2 µM (inactive) | 6.18 µM (inactive) | 2.39 µM (inactive) | 6.07 µM (inactive) | 4.84 µM (inactive) | 6.15 µM (inactive) | 5.97 µM (inactive) | 4.73 µM (inactive) | 10.6 µM (inactive) | 1.53 µM (inactive) | 18.8 µM (inactive) | 11 µM (inactive) | – | 2.51 µM (inactive) | 4.13 µM (inactive) | 14.1 µM (inactive) | –
9 | CN(CCN(C)C(=O)CCn1cc(F)c(=O)[nH]c1=O)C(=O)CCn1cc(F)c(=O)[nH]c1=O | > 100 µM (inactive) | > 100 µM (inactive) | > 100 µM (inactive) | > 100 µM (inactive) | > 100 µM (inactive) | – | > 100 µM (inactive) | > 100 µM (inactive) | > 100 µM (inactive) | > 100 µM (inactive) | > 100 µM (inactive) | > 100 µM (inactive) | > 100 µM (inactive) | > 100 µM (inactive) | > 100 µM (inactive) | – | > 100 µM (inactive) | > 100 µM (inactive) | > 100 µM (inactive) | > 100 µM (inactive)
10 | CC(C)(C)C1=C(Br)C(O)(C(C)(C)C)OP1(=O)c1ccccc1 (configuration not stated) | – | > 100 µM (inactive) | > 100 µM (inactive) | > 100 µM (inactive) | > 100 µM (inactive) | 0.805 µM (active) | > 100 µM (inactive) | > 100 µM (inactive) | > 100 µM (inactive) | > 100 µM (inactive) | > 100 µM (inactive) | > 100 µM (inactive) | > 100 µM (inactive) | > 100 µM (inactive) | > 100 µM (inactive) | > 100 µM (inactive) | > 100 µM (inactive) | > 100 µM (inactive) | > 100 µM (inactive) | –
11 | O=C(N/C(=C\c1ccc2c(c1)OCO2)c1nc2ccccc2[nH]1)c1ccccc1 | 21 µM (inactive) | 38.5 µM (inactive) | 17.6 µM (inactive) | 27.7 µM (inactive) | 16 µM (inactive) | – | 32.7 µM (inactive) | 18.6 µM (inactive) | 34.2 µM (inactive) | 24.5 µM (inactive) | 26.9 µM (inactive) | 41.2 µM (inactive) | 43.7 µM (inactive) | 37.6 µM (inactive) | 24.3 µM (inactive) | – | 33.3 µM (inactive) | 30.2 µM (inactive) | 27.7 µM (inactive) | 21.9 µM (inactive)
12 | N#CCC(=O)N/N=C(/C(=O)Nc1ccccc1)C1C(=O)N(c2ccccc2)N=C1N (configuration not stated) | > 100 µM (inactive) | > 100 µM (inactive) | > 100 µM (inactive) | > 100 µM (inactive) | > 100 µM (inactive) | – | > 100 µM (inactive) | > 100 µM (inactive) | > 100 µM (inactive) | > 100 µM (inactive) | > 100 µM (inactive) | > 100 µM (inactive) | > 100 µM (inactive) | > 100 µM (inactive) | > 100 µM (inactive) | – | > 100 µM (inactive) | > 100 µM (inactive) | > 100 µM (inactive) | > 100 µM (inactive)
13 | Cc1ccc(-c2cc(-c3ccc(Cl)cc3)nc(/N=C3\C(=O)N(CN(C)C)c4ccccc43)n2)cc1 | > 100 µM (inactive) | 24.2 µM (inactive) | > 100 µM (inactive) | 53.5 µM (inactive) | 48.4 µM (inactive) | 37.3 µM (inactive) | 64.6 µM (inactive) | 33.6 µM (inactive) | > 100 µM (inactive) | 81.5 µM (inactive) | 14.9 µM (inactive) | > 100 µM (inactive) | > 100 µM (inactive) | > 100 µM (inactive) | 27.3 µM (inactive) | > 100 µM (inactive) | 64.1 µM (inactive) | > 100 µM (inactive) | – | –
14 | O=C(N/N=C(COc1ccccc1)\N=C\c1cccnc1)c1ccncc1 | > 100 µM (inactive) | > 100 µM (inactive) | > 100 µM (inactive) | > 100 µM (inactive) | – | > 100 µM (inactive) | > 100 µM (inactive) | > 100 µM (inactive) | > 100 µM (inactive) | 59.6 µM (inactive) | > 100 µM (inactive) | > 100 µM (inactive) | > 100 µM (inactive) | > 100 µM (inactive) | > 100 µM (inactive) | > 100 µM (inactive) | > 100 µM (inactive) | > 100 µM (inactive) | > 100 µM (inactive) | –
15 | CCOC(=O)C1C(c2ccc(Br)cc2)N(Cc2ccccc2)C(c2ccc(Br)cc2)C(C(=O)OC)S1(=O)=O (configuration not stated) | 46.8 µM (inactive) | > 100 µM (inactive) | 53.3 µM (inactive) | > 100 µM (inactive) | – | – | > 100 µM (inactive) | > 100 µM (inactive) | > 100 µM (inactive) | > 100 µM (inactive) | 40.4 µM (inactive) | > 100 µM (inactive) | 35.4 µM (inactive) | > 100 µM (inactive) | 87.7 µM (inactive) | – | 93.5 µM (inactive) | > 100 µM (inactive) | > 100 µM (inactive) | 34.4 µM (inactive)
